Reference: patent US9119846B2, “Method and composition for enhancing cognition in alzheimer's patients” (NEURIM PHARMACEUTICALS (1991) LTD., priority 2003, dated 2015)

Tests used:
Assay type in all cases: in vivo, human
[1] = tested on: elderly insomnia patients; assay: Psychomotor performance (total reaction time, mean reaction time); conditions: 2 mg per night, 3 weeks
Method: The effect of a controlled release formulation of melatonin on psychomotor performance (total reaction time, TRT, and Mean reaction time, MRT) in 40 elderly insomnia patients (aged 60.8 (SD 0.8) years) were studied. The subjects were treated for 2 weeks with placebo (baseline) and 3 weeks with 2 mg per night of controlled release melatonin. On the last two days of treatment psychomotor tests were taken by all patients to assess daytime vigilance.

elderly volunteers = assay: Memory recall (Rivermead story test), crossover study; conditions: for Difference in recalls under melatonin and placebo / Mean number of recalled elements of the story: 2 hours after intake; for Mean number of recalled elements of the story: 2 mg controlled release
Method: The effect of melatonin (2 mg controlled release formulation) and placebo on memory recall (Rivermead story test) were assessed in 16 elderly volunteers (>55 years; aged 59 (SD 3.2) years). In a randomised, double-blind, crossover study the subjects were given a tablet of placebo in the evening to establish baseline and then a tablet of melatonin or placebo in a random order in the evening with one week with no treatment in between treatments. The Rivermead test was given to the patients at 2 and 12.5 hours after the administration of the tablet. […] Memory efficiency is increased with controlled release 2 mg melatonin for both recalls (immediate and delayed) in the subjects who were smoking or ceased smoking within the last 6 months prior to the study than non-smokers compared to baseline or crossover placebo.

[2] = tested on: elderly insomnia patients; assay: Subjectively assessed quality of sleep (140 mm visual analog scale), randomized double-blind crossover study; conditions: controlled release 2 mg, 4 weeks, higher = better sleep
Method: The effect of a controlled release formulation of melatonin on subjectively assessed sleep quality in 17 elderly insomnia patients (aged 66.9 (SD 5.4) years) were studied in a randomized, double-blind, crossover study. Basal excretion of the main melatonin metabolite 6-sulfatoxymentonin in urine over the nocturnal period (8 p.m.-8 a.m.) was measured and the subjects were treated for 1 week with placebo to establish baseline characteristics followed by a two-period crossover design (4 weeks on either melatonin controlled release 2 mg or placebo) separated by a washout period (1 week). On the last week of the baseline and treatment periods patients were asked to assess the quality of their sleep the previous night by ticking a 140 mm visual analog scale. The distance (in mm) of the patient mark from the left hand side of the scale was measured and a higher number indicated better sleep. The difference from placebo values in the patient evaluation of restful sleep was calculated for smoking and non-smoking patients. There were no significant differences in the amount of nocturnal 6-sulfatoxymentonin excreted by smokers and non-smokers in the study population (3.5+1.5 vs. 6.3+5 μg 6-sulfatoxymentonin, respectively). […] No difference was found in the response to placebo between the smokers and non-smokers.

[3] = tested on: mixed age insomnia patients; assay: Leeds Sleep Evaluation Questionnaire sleep quality, responder rate; conditions: 1 mg per night, 3 weeks
Method: The effects of a controlled release formulation of melatonin on subjectively assessed sleep quality were studied in a mixed age insomnia patients population (aged 20-80 years). The subjects were treated for 1 week with placebo to establish baseline characteristics and then for 3 weeks with 1 mg per night of controlled release melatonin or placebo. On the last three days of the baseline and treatment periods patients were asked to assess the quality of their sleep the previous night using the Leeds Sleep Evaluation Questionnaire (Parrott, A. C. and I. Hindmarch (1980). “The Leeds sleep evaluation questionnaire in psychopharmacological investigations—a review.” Psychopharmacology (Berl) 71(2): 173-9) which comprises two 100 mm visual analog scales relating to sleep quality. The distance of the patient mark from the right hand side in mm was measured and the mean answer of the two questions was averaged across the 3 consecutive nights. A responder was defined as a patient showing improvement of 10 mm or more on the averaged value. […] There was no difference in responder rate to placebo between the smokers (46%, n=13) and non-smokers groups (44% n=53, p=0.89, chi-square test).

COc1ccc2[nH]cc(CCNC(C)=O)c2c1 [melatonin]
improvement in psychomotor skills, MRT ([1]; non-smokers): 0.62 ms | improvement in psychomotor skills, TRT ([1]; non-smokers): -5.21 ms | improvement in psychomotor skills, MRT ([1]; smokers): -36.07 ms | improvement in psychomotor skills, TRT ([1]; smokers): -38.95 ms | memory tasks in the first hours of administration over the respective placebo values (elderly volunteers; 2 mg controlled release formulation, single administration): improvement of memory tasks | Difference in recalls under melatonin and placebo (elderly volunteers; Non-smokers (n = 12)): −2.41 | Mean number of recalled elements of the story (elderly volunteers; Non-smokers (n = 12)): 9.8 | Difference in recalls under melatonin and placebo (elderly volunteers; Smokers (n = 4)): 3.5 | Mean number of recalled elements of the story (elderly volunteers; Smokers (n = 4)): 14.8 | Mean change (in mm) in perceived quality of sleep with melatonin over placebo ([2]; Non smokers (n = 4)): −2.8 mm | Mean change (in mm) in perceived quality of sleep with melatonin over placebo ([2]; Smokers (n = 10)): 15 mm | rate of responders (improvement of 10 mm or more) ([3]; non-smokers, n=43): 40% | rate of responders (improvement of 10 mm or more) ([3]; smokers, n=16): 62%
